Where a name gives a salt, the structure may show the parent alone. Read-outs that look alike come from different tables or passages of the source.

For orientation: IC50 means the midpoint of a concentration-inhibition curve. High values mean lower potency, low ones higher potency.

Assay [1] deals with T1, ERK5 (Homo sapiens, UniProt Q13164). The assay can be described thus: cell-based.
Target sequence in this assay (Q13164 whole entry): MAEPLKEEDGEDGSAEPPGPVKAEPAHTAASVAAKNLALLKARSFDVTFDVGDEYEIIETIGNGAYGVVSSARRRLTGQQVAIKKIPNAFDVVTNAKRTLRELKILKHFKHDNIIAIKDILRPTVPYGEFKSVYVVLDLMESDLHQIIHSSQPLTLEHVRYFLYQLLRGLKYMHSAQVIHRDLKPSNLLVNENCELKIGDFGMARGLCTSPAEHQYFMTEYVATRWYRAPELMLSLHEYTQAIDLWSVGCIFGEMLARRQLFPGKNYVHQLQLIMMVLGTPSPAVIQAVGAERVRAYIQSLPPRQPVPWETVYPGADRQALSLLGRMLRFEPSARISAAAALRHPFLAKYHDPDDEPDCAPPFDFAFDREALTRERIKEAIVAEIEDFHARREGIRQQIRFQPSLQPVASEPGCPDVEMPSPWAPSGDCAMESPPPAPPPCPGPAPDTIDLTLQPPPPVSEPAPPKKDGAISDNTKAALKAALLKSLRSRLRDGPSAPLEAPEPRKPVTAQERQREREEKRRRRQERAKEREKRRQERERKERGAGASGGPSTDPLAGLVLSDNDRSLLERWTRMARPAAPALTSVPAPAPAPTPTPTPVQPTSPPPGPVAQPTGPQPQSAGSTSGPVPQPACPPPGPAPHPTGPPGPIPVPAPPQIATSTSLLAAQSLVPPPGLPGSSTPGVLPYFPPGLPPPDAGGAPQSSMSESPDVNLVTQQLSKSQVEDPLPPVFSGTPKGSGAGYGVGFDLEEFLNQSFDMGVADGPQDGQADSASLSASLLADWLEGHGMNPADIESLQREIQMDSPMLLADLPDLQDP
Procedure: (§1) Two assays were performed to assess the ERK5 inhibitory activity of compounds of the Examples, a cell-based assay and a cell-free biochemical assay.
(§2) The renal cancer cell line SN12C was transduced by a lentivirus pGreenFire1 MEF2 EF1 Neo (ref TR030VA-N) from SBI using standard infection protocol. pGreenFire1 MEF2 EF1 Neo allows the expression of luciferase gene under the control of minimal promoter with MEF2 transcriptional response elements. Cells harboring the reporter construct were selected by geneticin treatment. The selected cells were then transposed by a piggyback based plasmid pCM4007 allowing the expression of constitutively activated MEK5DD under control of TREG3 promoter, a doxycycline regulated promoter. Transposed cells were selected by puromycin treatment. Upon doxycycline treatment (1 μg/ml) MEK5DD was expressed. MEK5DD activates ERK5 that phosphorylates MEF2C protein. Activated MEF2C protein can bind to its transcriptional response elements. Then the luciferase is expressed. In a 96-well plate (96F nuncleon ref137101 thermofisher), 50,000 cells were inoculated in 142.5 μl of RPMI medium containing 10% fetal calf serum, 1% glutamine, and 1 μg/ml doxycycline. […] The luciferase activity was measured using the Kit Bright Glo Luminescent Cell Assay Cat E2610 (Promega) according to the manufacturer's protocol. Luminescence was determined using 0.2 second reading/well using a Tecan SPARK. IC50 values were calculated using XLFIT5 for Microsoft Excel using method 205.
Assay [2] addresses T1, ERK5.
Target sequence in this assay (Q13164 55-347 limits assumed): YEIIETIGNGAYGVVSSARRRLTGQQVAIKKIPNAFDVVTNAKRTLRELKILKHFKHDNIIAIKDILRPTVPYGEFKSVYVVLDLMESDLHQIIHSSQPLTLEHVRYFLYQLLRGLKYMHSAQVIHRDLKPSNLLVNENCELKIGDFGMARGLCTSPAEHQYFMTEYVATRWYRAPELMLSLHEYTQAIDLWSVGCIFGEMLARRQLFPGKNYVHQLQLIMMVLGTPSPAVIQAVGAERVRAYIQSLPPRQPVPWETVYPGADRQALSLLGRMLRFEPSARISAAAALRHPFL
Procedure: as §1
(§3) An assay was performed to measure the capacity of each compound to inhibit ERK5 enzymatic activity. Compound potency was evaluated by Time-Resolved Forster Resonance Energy Transfer (FRET system). […] A mixture of 1 mM ATP and 1 μM biotinylated synthetic peptide was added (Biosyntan GmbH). This synthetic peptide represents amino acids 30-52 of Eukaryotic translation initiation factor 4E-binding protein 1 (see, e.g., the sequence under accession No. NP_004086.1) biotinylated at the N-terminus.
The target in assay [3] is T1, ERK5. The assay can be described thus: biochemical.
Target sequence in this assay (Q13164 55-347 limits assumed): as above
Procedure: as §1, §3
For assay [4], the target named is T1, ERK5. This is another data set of the same source.
Target sequence in this assay (Q13164 whole entry): as the sequence (Q13164 whole entry) above
Procedure: as §1, §2

On to `CN1CCC(c2nc3c(C4CCN(C(=O)c5ccc(OC(F)(F)F)cc5)CC4)ccnc3[nH]2)C1` (single isomer, unassigned) [Example 25, [4-[2-(1-Methylpyrrolidin-3-yl)-3H-imidazo[4,5-b]pyridin-7-yl]-1-piperidyl]-[4-(trifluoromethoxy)phenyl]methanone], for which the IC50 stood at 179 nM at ERK5 [1] and 148 nM at ERK5 [2].
With `O=C(c1ccc(S(F)(F)(F)(F)F)cc1)N1CCC(c2c(F)cnc3[nH]c(C4CCOC4)nc23)CC1` (single isomer, unassigned) [Example 400, [4-[6-fluoro-2-[tetrahydrofuran-3-yl]-3H-imidazo[4,5-b]pyridin-7-yl]-1-piperidyl]-[4-(pentafluoro-λ^6-sulfanyl)phenyl]methanone], the half-maximal inhibitory concentration (IC50) is 684 nM against ERK5 [3] and 104 to 165 nM on ERK5 [1].
For `Nc1cc(OC(F)(F)F)ccc1C(=O)N1CCC(c2ccnc3[nH]c(C4CCN(CC(F)F)CC4)nc23)CC1` [Example 37, [2-Amino-4-(trifluoromethoxy)phenyl]-[4-[2-[1-(2,2-difluoroethyl)-4-piperidyl]-3H-imidazo[4,5-b]pyridin-7-yl]-1-piperidyl]methanone], the IC50 at ERK5 [3] and against ERK5 [1] was 47 nM in each case.
Regarding `O=C(c1ccc(C(F)(F)F)c(=O)[nH]1)N1CCC(c2ccnc3[nH]c(C4CCOCC4)nc23)CC1` [Example 53, 6-[4-(2-Tetrahydropyran-4-yl-3H-imidazo[4,5-b]pyridin-7-yl)piperidine-1-carbonyl]-3-(trifluoromethyl)-1H-pyridin-2-one, hydrochloride], the 50% inhibitory concentration (IC50) is 262 nM on ERK5 [3] and over 10000 nM on ERK5 [1].
The corresponding values for `CS(=O)(=O)c1ccc(C(=O)N2CCC(c3ccnc4[nH]c(C5CCOCC5)nc34)CC2)c(N)c1` [Example 84, (2-amino-4-methylsulfonyl-phenyl)-[4-(2-tetrahydropyran-4-yl-3H-imidazo[4,5-b]pyridin-7-yl)-1-piperidyl]methanone] are 26800 nM and over 10000 nM.
Turning to `O=C(C1CC1c1cccc(O)c1)N1CCC(c2ccnc3[nH]c(C4CCOCC4)nc23)CC1` (stereo not shown) [Example 86, [2-(3-hydroxyphenyl)cyclopropyl]-[4-(2-tetrahydropyran-4-yl-3H-imidazo[4,5-b]pyridin-7-yl)-1-piperidyl]methanone], the IC50 is 25200 nM against ERK5 [3] and over 10000 nM on ERK5 [1].
In the case of `Nc1c(C(=O)N2CCC(c3ccnc4[nH]c(C5CCOCC5)nc34)CC2)cnn1-c1ccccc1` [Example 105, (5-amino-1-phenyl-pyrazol-4-yl)-[4-(2-tetrahydropyran-4-yl-3H-imidazo[4,5-b]pyridin-7-yl)-1-piperidyl]methanone], the IC50 against ERK5 [3] was found to be 6910 nM; against ERK5 [1], 6640 nM.
Taken in the same sequence, the figures for `O=C1Nc2ccccc2OC1CC(=O)N1CCC(c2ccnc3[nH]c(C4CCOCC4)nc23)CC1` (stereo not shown) [Example 106, 2-[2-oxo-2-[4-(2-tetrahydropyran-4-yl-3H-imidazo[4,5-b]pyridin-7-yl)-1-piperidyl]ethyl]-4H-1,4-benzoxazin-3-one] were 25700 nM and over 10000 nM.
Taken in the same sequence, the figures for `O=C(c1cnn(Cc2ccccc2Cl)c1)N1CCC(c2ccnc3[nH]c(C4CCOCC4)nc23)CC1` [Example 112, [1-[(2-chlorophenyl)methyl]pyrazol-4-yl]-[4-(2-tetrahydropyran-4-yl-3H-imidazo[4,5-b]pyridin-7-yl)-1-piperidyl]methanone] were 14900 nM and over 10000 nM.
The corresponding values for `Nc1nc2ccccc2nc1C(=O)N1CCC(c2ccnc3[nH]c(C4CCOCC4)nc23)CC1` [Example 116, (3-aminoquinoxalin-2-yl)-[4-(2-tetrahydropyran-4-yl-3H-imidazo[4,5-b]pyridin-7-yl)-1-piperidyl]methanone] are 16400 nM and over 10000 nM.
Regarding `O=C(C1CCN(c2ccccc2Cl)C1)N1CCC(c2ccnc3[nH]c(C4CCOCC4)nc23)CC1` (stereo not shown) [Example 118, [1-(2-chlorophenyl)pyrrolidin-3-yl]-[4-(2-tetrahydropyran-4-yl-3H-imidazo[4,5-b]pyridin-7-yl)-1-piperidyl]methanone], the results for the IC50 against ERK5 [3] and against ERK5 [1] were 18000 nM and over 10000 nM, respectively.
Taken in the same sequence, the figures for `O=C(c1cn(-c2ccc(F)cc2)cn1)N1CCC(c2ccnc3[nH]c(C4CCOCC4)nc23)CC1` [Example 120, [1-(4-fluorophenyl)imidazol-4-yl]-[4-(2-tetrahydropyran-4-yl-3H-imidazo[4,5-b]pyridin-7-yl)-1-piperidyl]methanone] were 6600 nM and over 10000 nM.
The corresponding values for `COC12CC(c3nc4c(C5CCN(C(=O)c6ccc(OC(F)(F)F)cc6N)CC5)ccnc4[nH]3)(C1)C2` [Example 150, [2-amino-4-(trifluoromethoxy)phenyl]-[4-[2-(3-methoxy-1-bicyclo[1.1.1]pentanyl)-3H-imidazo[4,5-b]pyridin-7-yl]-1-piperidyl]methanone] are 13 nM and 13 nM.
As to `Nc1c(C(=O)N2CCC(c3ccnc4[nH]c(C5CCOCC5)nc34)CC2)ccc(OC(F)(F)F)c1F` [Example 189, [2-amino-3-fluoro-4-(trifluoromethoxy)phenyl]-[4-(2-tetrahydropyran-4-yl-3H-imidazo[4,5-b]pyridin-7-yl)-1-piperidyl]methanone], the figures for the IC50 on ERK5 [3] and on ERK5 [1] were 36 nM and 37 nM, respectively.
For the compound `O=C(c1ccc(C(F)(F)F)[nH]c1=O)N1CCC(c2ccnc3[nH]c(C4CCOCC4)nc23)CC1` [Example 264, 3-[4-(2-tetrahydropyran-4-yl-3H-imidazo[4,5-b]pyridin-7-yl)piperidine-1-carbonyl]-6-(trifluoromethyl)-1H-pyridin-2-one], the IC50 was 98 nM against ERK5 [3] and over 10000 nM on ERK5 [1].
For `COC12CC(c3nc4c(C5CCN(C(=O)c6ccc(S(F)(F)(F)(F)F)cc6)CC5)ccnc4[nH]3)(C1)C2` [Example 302, [4-[2-(3-methoxy-1-bicyclo[1.1.1]pentanyl)-3H-imidazo[4,5-b]pyridin-7-yl]-1-piperidyl]-[4-(pentafluoro-λ^6-sulfanyl)phenyl]methanone], the IC50 against ERK5 [3] was 95 nM; against ERK5 [1], 97 nM.
`COC12CC(c3nc4c(C5CCN(C(=O)c6ccc(OC(F)(F)F)cc6)CC5)c(F)cnc4[nH]3)(C1)C2` [Example 426, [4-[6-fluoro-2-(3-methoxy-1-bicyclo[1.1.1]pentanyl)-3H-imidazo[4,5-b]pyridin-7-yl]-1-piperidyl]-[4-(trifluoromethoxy)phenyl]methanone]: the IC50 against ERK5 [4] stood at 10 nM; against ERK5 [3], 69 nM.
Taken in the same sequence, the figures for `COC12CC(c3nc4c(C5CCN(C(=O)c6ccc(OC(F)(F)F)cc6N)CC5)c(F)cnc4[nH]3)(C1)C2` [Example 428, [2-amino-4-(trifluoromethoxy)phenyl]-[4-[6-fluoro-2-(3-methoxy-1-bicyclo[1.1.1]pentanyl)-3H-imidazo[4,5-b]pyridin-7-yl]-1-piperidyl]methanone] were 5 nM and 28 nM.
Regarding `Nc1cc(OC(F)(F)F)ccc1C(=O)N1CCC(c2c(F)cnc3[nH]c(C45CC(C(F)(F)F)(C4)C5)nc23)CC1` [Example 432, [2-amino-4-(trifluoromethoxy)phenyl]-[4-[6-fluoro-2-[3-(trifluoromethyl)-1-bicyclo[1.1.1]pentanyl]-3H-imidazo[4,5-b]pyridin-7-yl]-1-piperidyl]methanone], the values for the IC50 at ERK5 [3] and at ERK5 [1] were 3870 nM and 16 to 43 nM, respectively.
Taken in the same sequence, the figures for `O=C(c1ccc(OC(F)(F)F)cc1)N1CCC(c2c(F)cnc3[nH]c(C45CC(C(F)(F)F)(C4)C5)nc23)CC1` [Example 436, [4-[6-fluoro-2-[3-(trifluoromethyl)-1-bicyclo[1.1.1]pentanyl]-3H-imidazo[4,5-b]pyridin-7-yl]-1-piperidyl]-[4-(trifluoromethoxy)phenyl]methanone] were 4500 nM and 38 to 88 nM.

(Values after US20260022116A1, “IMIDAZOPYRIDINE COMPOUNDS, PREPARATION THEREOF AND THERAPEUTIC USES THEREOF” (SANOFI, priority 2022, published 2026).)
